In article PMC2944038 (Biochemical pharmacology, 2010):

Tests used:
[1] = WST-1 cytotoxicity study in MDCK cells; format: cell-based; conditions: dog, MDCK cells (ASBT-MDCK or OCTN2-MDCK, not specified)
MDCK cells = assay: WST-1 cytotoxicity study in MDCK cells; format: cell-based; conditions: for cytotoxicity in MDCK cells (in words): cytotoxic if cell viability 80% or less, 10 min exposure
[2] = molecular target: T1, human apical sodium-dependent bile acid transporter (ASBT; SLC10A2) (Homo sapiens, UniProt Q12908); assay: ASBT inhibition: taurocholate uptake into ASBT-MDCK cells; format: cell-based; conditions: for ASBT inhibitor: with consideration of cytotoxicity
T1 sequence (Q12908 1-348): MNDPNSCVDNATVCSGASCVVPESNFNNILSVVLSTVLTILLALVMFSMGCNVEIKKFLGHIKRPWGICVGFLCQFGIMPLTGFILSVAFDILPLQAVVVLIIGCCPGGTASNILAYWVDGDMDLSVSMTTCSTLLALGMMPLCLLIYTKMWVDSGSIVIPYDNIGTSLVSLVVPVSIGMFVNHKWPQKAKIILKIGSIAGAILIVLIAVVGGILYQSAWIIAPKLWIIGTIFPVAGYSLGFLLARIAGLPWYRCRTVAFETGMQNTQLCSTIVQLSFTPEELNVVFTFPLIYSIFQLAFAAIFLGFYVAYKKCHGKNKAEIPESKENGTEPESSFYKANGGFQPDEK

[3] = molecular target: T2, excitatory amino acid transporter 4 (EAAT4; SLC1A6) (Homo sapiens, UniProt P48664); assay: EAAT4 inhibition: glutamate uptake into EAAT4-HEK cells; format: cell-based; conditions: for EAAT4 inhibitor: with consideration of cytotoxicity
T2 sequence (P48664 1-564): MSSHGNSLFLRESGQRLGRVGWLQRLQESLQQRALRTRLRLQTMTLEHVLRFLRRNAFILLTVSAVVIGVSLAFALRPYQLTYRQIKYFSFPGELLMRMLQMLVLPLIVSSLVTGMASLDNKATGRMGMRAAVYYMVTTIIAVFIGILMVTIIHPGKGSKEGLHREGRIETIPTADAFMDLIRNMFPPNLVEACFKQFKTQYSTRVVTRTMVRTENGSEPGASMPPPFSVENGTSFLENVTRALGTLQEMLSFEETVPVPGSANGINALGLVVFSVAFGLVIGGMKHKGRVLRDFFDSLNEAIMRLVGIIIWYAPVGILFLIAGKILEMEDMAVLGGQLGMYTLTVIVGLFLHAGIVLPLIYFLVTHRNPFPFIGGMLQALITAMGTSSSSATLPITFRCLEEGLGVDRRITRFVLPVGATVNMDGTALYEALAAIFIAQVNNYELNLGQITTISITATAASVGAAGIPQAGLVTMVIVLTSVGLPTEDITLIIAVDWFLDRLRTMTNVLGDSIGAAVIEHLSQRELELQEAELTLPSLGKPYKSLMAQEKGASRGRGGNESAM

HEK cells = conditions: for cytotoxicity in HEK cells (in words): cytotoxic if cell viability 80% or less, 10 min exposure
[4] = molecular target: T1, human apical sodium-dependent bile acid transporter (ASBT; SLC10A2); conditions: known inhibitors selected for this study; cited from earlier work
[5] = molecular target: T3, human organic cation/carnitine transporter (OCTN2; SLC22A5) (Homo sapiens, UniProt O76082); assay: OCTN2 inhibition: L-carnitine uptake into OCTN2-MDCK cells; format: cell-based; conditions: for OCTN2 inhibitor: with consideration of cytotoxicity
T3 sequence (O76082 1-557): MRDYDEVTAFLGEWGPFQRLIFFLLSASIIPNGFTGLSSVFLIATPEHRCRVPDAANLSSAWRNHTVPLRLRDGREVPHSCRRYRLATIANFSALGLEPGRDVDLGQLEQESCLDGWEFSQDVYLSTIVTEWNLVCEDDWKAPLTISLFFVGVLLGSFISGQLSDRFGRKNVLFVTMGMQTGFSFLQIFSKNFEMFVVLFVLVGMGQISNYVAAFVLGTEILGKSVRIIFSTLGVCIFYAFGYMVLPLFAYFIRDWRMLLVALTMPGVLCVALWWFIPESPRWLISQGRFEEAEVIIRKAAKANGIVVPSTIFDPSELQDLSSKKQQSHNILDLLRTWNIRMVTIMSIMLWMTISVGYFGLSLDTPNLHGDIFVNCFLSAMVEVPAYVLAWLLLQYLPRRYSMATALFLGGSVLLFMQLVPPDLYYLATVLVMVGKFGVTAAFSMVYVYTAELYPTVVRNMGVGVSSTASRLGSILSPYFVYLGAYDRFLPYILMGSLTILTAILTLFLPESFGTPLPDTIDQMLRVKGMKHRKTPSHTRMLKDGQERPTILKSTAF

[6] = EAAT4-HEK, drug concentration not given

Row | SMILES | cytotoxicity in MDCK cells (in words) (MDCK cells) | ASBT inhibitor [2] | EAAT4 inhibitor [3] | cytotoxicity in HEK cells (in words) (HEK cells) | further results
1 | CCOC(=O)C1=C(COCCN)NC(C)=C(C(=O)OC)C1c1ccccc1Cl (stereo not shown) [Amlodipine, amlodipine] | cytotoxic to MDCK cells |  |  |  | viability at 10 min, 100 μM [1]: 101 ± 6%; viability at 10 min, 500 μM [1]: 39.3%; cells non-viable (MDCK cells; MDCK cells): 60%
2 | CN(C)CCC(c1ccc(Cl)cc1)c1ccccn1 (stereo not shown) [Chlorpheniramine, chlorpheniramine] |  | only inhibited OCTN2 |  |  | 
3 | CN1CCN(C2=Nc3cc(Cl)ccc3Nc3ccccc32)CC1 [Clozapine, clozapine] | not cytotoxic in MDCK cells |  | non-inhibitors of EAAT4 | reduced cell viability in HEK cells | 
4 | COc1ccc([C@@H]2Sc3ccccc3N(CCN(C)C)C(=O)[C@@H]2OC(C)=O)cc1 [Diltiazem, diltiazem] |  |  |  |  | ASBT inhibition, previously reported [4]: known to inhibit both transporters
5 | CC(C)n1c(/C=C/C(O)CC(O)CC(=O)O)c(-c2ccc(F)cc2)c2ccccc21 (stereo not shown) [Fluvastatin, fluvastatin] |  |  | inhibited all three transporters | without cytotoxicity | taurocholate uptake [2]: 4.51%; ASBT inhibition ([2]; ASBT-MDCK, drug concentration not given): over 90%; OCTN2 inhibition (reduction of L-carnitine uptake) ([5]; OCTN2-MDCK, drug concentration not given): ~35%; EAAT4 inhibition [3, 6]: ~35%; glutamate uptake [3, 6]: about 60%; viability at 10 min [1]: 107%; ASBT inhibition, previously reported [4]: competitively inhibits ASBT
6 | COc1ccc2c(c1)c(CC(=O)O)c(C)n2C(=O)c1ccc(Cl)cc1 [Indomethacin, indomethacin] |  | only inhibited ASBT |  |  | OCTN2 inhibitor [5]: only inhibited ASBT
7 | CC[C@H](C)C(=O)O[C@H]1C[C@@H](C)C=C2C=C[C@H](C)[C@H](CC[C@@H]3C[C@@H](O)CC(=O)O3)[C@H]21 [Lovastatin, lovastatin] |  |  | did not appreciably inhibit EAAT4 |  | 
8 | COC(=O)C1=C(C)NC(C)=C(C(=O)OCCN(C)Cc2ccccc2)C1c1cccc([N+](=O)[O-])c1 (stereo not shown) [Nicardipine, nicardipine] | cytotoxic to MDCK cells | only inhibited ASBT |  |  | 
9 | COC(=O)C1=C(C)NC(C)=C(C(=O)OCC(C)C)C1c1ccccc1[N+](=O)[O-] (stereo not shown) [Nisoldipine, nisoldipine] | cytotoxic to MDCK cells | only inhibited ASBT |  |  | OCTN2 inhibitor [5]: not classed as OCTN2 inhibitors; viability at 10 min, 100 μM [1]: 56%
10 | CCC(C)(C)C(=O)O[C@H]1C[C@@H](C)C=C2C=C[C@H](C)[C@H](CC[C@@H]3C[C@@H](O)CC(=O)O3)[C@H]21 [Simvastatin, simvastatin] |  |  | did not appreciably inhibit EAAT4 |  | 
11 | CSc1ccc2c(c1)N(CCC1CCCCN1C)c1ccccc1S2 (stereo not shown) [Thioridazine, thioridazine] | not cytotoxic in MDCK cells |  | non-inhibitors of EAAT4 | reduced cell viability in HEK cells | viable cells / cell viability (HEK cells; HEK cells, 10 min, drug concentration not given): 73.5%; ASBT inhibition, previously reported [4]: known to inhibit both transporters
12 | Clc1ccc(C(Cn2ccnc2)OCc2ccsc2Cl)c(Cl)c1 (stereo not shown) [Tioconazole, tioconazole] | not in MDCK cells |  | non-inhibitors of EAAT4 | reduced cell viability in HEK cells | 
13 | CN(C)CCCN1c2ccccc2Sc2ccc(Cl)cc21 [chlorpromazine] | not cytotoxic in MDCK cells |  |  |  | 
